Experimental data: PubChem BioAssay (NCI)
Values joined by “and” are separate entries in the source; they are usually repeats but may differ in a detail not shown here. Equal values may be shown once.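 Values below derive from 48-hour exposures of cells grown in 96-well plates, with endpoints linearly interpolated between the two concentrations bracketing the appropriate inhibition level. Abbreviation: GI50, concentration required for 50% inhibition of growth. TGI denotes the concentration required for complete inhibition of growth.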

Tests used:
Experiment in all cases: NCI tumour cell line growth inhibition, 48 h
HOP-92 NSCLC = test system: HOP-92 NSCLC
LOX IMVI melanoma = test system: LOX IMVI melanoma
SN12C renal = test system: SN12C renal
U251 CNS = test system: U251 CNS
DU-145 prostate = test system: DU-145 prostate
RXF 393 renal = test system: RXF 393 renal
NCI/ADR-RES ovarian = test system: NCI/ADR-RES ovarian
CAKI-1 renal = test system: CAKI-1 renal
HT29 colon = test system: HT29 colon
SF-539 CNS = test system: SF-539 CNS
EKVX NSCLC = test system: EKVX NSCLC
HCT-15 colon = test system: HCT-15 colon
HL-60(TB) leukemia = test system: HL-60(TB) leukemia
SK-OV-3 ovarian = test system: SK-OV-3 ovarian
DMS 273 small cell lung = test system: DMS 273 small cell lung
OVCAR-8 ovarian = test system: OVCAR-8 ovarian
HOP-18 NSCLC = test system: HOP-18 NSCLC
T-47D breast = test system: T-47D breast
NCI-H460 lung = test system: NCI-H460 lung
SF-268 CNS = test system: SF-268 CNS
A549 NSCLC = test system: A549 NSCLC
MCF7 breast = test system: MCF7 breast
UO-31 renal = test system: UO-31 renal
CCRF-CEM leukemia = test system: CCRF-CEM leukemia
SW-620 colon = test system: SW-620 colon
P388/ADR leukemia = test system: P388/ADR leukemia
A498 renal = test system: A498 renal
BT-549 breast = test system: BT-549 breast
M19-MEL melanoma = test system: M19-MEL melanoma
SF-295 CNS = test system: SF-295 CNS
XF 498 CNS = test system: XF 498 CNS
OVCAR-5 ovarian = test system: OVCAR-5 ovarian
COLO 205 colon = test system: COLO 205 colon
HCT-116 colon = test system: HCT-116 colon
MALME-3M melanoma = test system: MALME-3M melanoma
MDA-N = test system: MDA-N
KM20L2 colon = test system: KM20L2 colon
DLD-1 colon = test system: DLD-1 colon
SR leukemia = test system: SR leukemia
MDA-MB-435 = test system: MDA-MB-435
M14 melanoma = test system: M14 melanoma
TK-10 renal = test system: TK-10 renal
SNB-19 CNS = test system: SNB-19 CNS
IGROV1 ovarian = test system: IGROV1 ovarian
SNB-75 CNS = test system: SNB-75 CNS
NCI-H23 lung = test system: NCI-H23 lung
HOP-62 NSCLC = test system: HOP-62 NSCLC
P388 leukemia = test system: P388 leukemia
DMS 114 small cell lung = test system: DMS 114 small cell lung
MOLT-4 leukemia = test system: MOLT-4 leukemia
OVCAR-4 ovarian = test system: OVCAR-4 ovarian
OVCAR-3 ovarian = test system: OVCAR-3 ovarian
K-562 leukemia = test system: K-562 leukemia
SN12K1 renal = test system: SN12K1 renal
HS 578T breast = test system: HS 578T breast
SK-MEL-2 melanoma = test system: SK-MEL-2 melanoma
RPMI-8226 leukemia = test system: RPMI-8226 leukemia
UACC-62 melanoma = test system: UACC-62 melanoma
HCC-2998 colon = test system: HCC-2998 colon
PC-3 prostate = test system: PC-3 prostate
SNB-78 CNS = test system: SNB-78 CNS
MDA-MB-231 breast = test system: MDA-MB-231 breast
786-0 renal = test system: 786-0 renal
ACHN renal = test system: ACHN renal
NCI-H522 lung = test system: NCI-H522 lung
LXFL 529 NSCLC = test system: LXFL 529 NSCLC
NCI-H226 lung = test system: NCI-H226 lung
UACC-257 melanoma = test system: UACC-257 melanoma
KM12 colon = test system: KM12 colon
SK-MEL-28 melanoma = test system: SK-MEL-28 melanoma
SK-MEL-5 melanoma = test system: SK-MEL-5 melanoma

Work on C=Cc1cc(OC)c2c(c1)c(=O)oc1c2cc(OC)c2c(O)ccc(C3OC(C)C(O)C(C)(O)C3O)c21 (stereo unspecified) yielded a GI50 (HOP-92 NSCLC) of 0.215 nM, a TGI (HOP-92 NSCLC) of 0.24 µM and a GI50 (LOX IMVI melanoma) of 0.281 nM. The GI50 (SN12C renal) was 1.49 nM, the GI50 (U251 CNS) was 0.187 nM and the TGI (DU-145 prostate) was 8.97 nM. The GI50 (RXF 393 renal) was 0.174 nM, the GI50 (NCI/ADR-RES ovarian) was 0.659 nM and the GI50 (CAKI-1 renal) was 2.24 nM. It also gave a TGI (CAKI-1 renal) of 0.0916 µM, a GI50 (HT29 colon) of 0.815 nM and a TGI (HT29 colon) of 0.666 µM. For the same compound, the GI50 (SF-539 CNS) was 0.153 nM, the GI50 (EKVX NSCLC) was 0.589 nM and the GI50 (HCT-15 colon) was 0.552 nM. It also gave a TGI (HCT-15 colon) of 0.467 µM, a TGI (HL-60(TB) leukemia) of 0.0256 µM and a GI50 (SK-OV-3 ovarian) of 0.565 nM. For the same compound, the TGI (DMS 273 small cell lung) was 139 nM, the GI50 (OVCAR-8 ovarian) was 0.476 nM and the TGI (HOP-18 NSCLC) was 392 nM. The TGI (T-47D breast) was 4.39 nM, the GI50 (NCI-H460 lung) was 0.484 nM and the TGI (NCI-H460 lung) was 6.52 nM and 58.4 nM. It also gave a GI50 (SF-268 CNS) of 0.148 nM, a GI50 (A549 NSCLC) of 0.716 nM and a TGI (A549 NSCLC) of 0.376 µM. It also gave a GI50 (MCF7 breast) of 0.0358 nM, a TGI (MCF7 breast) of 360 nM and a GI50 (UO-31 renal) of 1.84 nM. The GI50 (CCRF-CEM leukemia) was 0.0129 nM, the GI50 (SW-620 colon) was 0.502 nM and the TGI (P388/ADR leukemia) was 804 nM. It also gave a GI50 (A498 renal) of 1.21 nM, a TGI (BT-549 breast) of 7.58 nM and a TGI (M19-MEL melanoma) of 0.16 µM. The GI50 (SF-295 CNS) was 0.699 nM, the TGI (SF-295 CNS) was 9.9 nM and 59.3 nM and the TGI (XF 498 CNS) was 37.3 nM. The GI50 (OVCAR-5 ovarian) was 0.251 nM, the TGI (COLO 205 colon) was 0.409 µM and the GI50 (HCT-116 colon) was 0.308 nM. For the same compound, the GI50 (MALME-3M melanoma) was 1.53 nM, the TGI (MDA-N) was 4.25 nM and the TGI (KM20L2 colon) was 0.161 µM. It also gave a TGI (DLD-1 colon) of 1070 nM, a TGI (SR leukemia) of 0.000187 µM and a TGI (MDA-MB-435) of 3.65 nM. For the same compound, the TGI (M14 melanoma) was 0.00162 µM, the TGI (TK-10 renal) was 0.00855 µM and the GI50 (SNB-19 CNS) was 1.51 nM. The TGI (SNB-19 CNS) was 0.733 µM, the GI50 (IGROV1 ovarian) was 1.43 nM and the TGI (IGROV1 ovarian) was 1.08 µM. For the same compound, the GI50 (SNB-75 CNS) was 0.41 nM, the GI50 (NCI-H23 lung) was 0.113 nM and the GI50 (HOP-62 NSCLC) was 0.0967 nM. The TGI (P388 leukemia) was 529 nM, the TGI (DMS 114 small cell lung) was 0.0393 µM and the GI50 (MOLT-4 leukemia) was 0.0198 nM. For the same compound, the GI50 (OVCAR-4 ovarian) was 2.15 nM, the GI50 (OVCAR-3 ovarian) was 1.81 nM and the GI50 (K-562 leukemia) was 0.37 nM. For the same compound, the TGI (K-562 leukemia) was 0.947 µM, the TGI (SN12K1 renal) was 131 nM and the TGI (HS 578T breast) was 6.83 nM. The GI50 (SK-MEL-2 melanoma) was 1.34 nM, the GI50 (RPMI-8226 leukemia) was 0.432 nM and the GI50 (UACC-62 melanoma) was 1.2 nM. The GI50 (HCC-2998 colon) was 2.53 nM and the TGI (PC-3 prostate) was 4.05 nM.
CC(C)NC(=O)OCc1c(COC(=O)NC(C)C)c(-c2ccc(Cl)c(Cl)c2)n2c1CCC2 showed a TGI (HOP-92 NSCLC) of 52.2 µM, a TGI (LOX IMVI melanoma) of 66.6 µM and a TGI (SN12C renal) of 68.2 µM. For the same compound, the TGI (U251 CNS) was 71.8 µM, the TGI (DU-145 prostate) was greater than 100000 nM and the TGI (RXF 393 renal) was 46.9 µM. It also gave a TGI (NCI/ADR-RES ovarian) greater than 100 µM, a TGI (CAKI-1 renal) of 42.2 µM and a TGI (HT29 colon) of 64.1 µM. For the same compound, the TGI (SF-539 CNS) was 65.4 µM, the TGI (EKVX NSCLC) was 69.6 µM and the TGI (HCT-15 colon) was 71.3 µM. For the same compound, the TGI (HL-60(TB) leukemia) was 48.2 µM, the TGI (SK-OV-3 ovarian) was greater than 76.8 µM and the TGI (DMS 273 small cell lung) was greater than 67000 nM. For the same compound, the TGI (OVCAR-8 ovarian) was 73.4 µM, the TGI (HOP-18 NSCLC) was greater than 83900 nM and the TGI (T-47D breast) was greater than 56200 nM. The TGI (NCI-H460 lung) was 68300 nM, the TGI (SNB-78 CNS) was 41.9 µM and the TGI (MDA-MB-231 breast) was greater than 100 µM. For the same compound, the TGI (SF-268 CNS) was 67.6 µM, the TGI (A549 NSCLC) was 29.6 µM and the TGI (MCF7 breast) was greater than 100000 nM. For the same compound, the TGI (786-0 renal) was 44.5 µM, the TGI (ACHN renal) was 43.6 µM and the TGI (UO-31 renal) was 63.5 µM. For the same compound, the TGI (NCI-H522 lung) was greater than 74.4 µM, the TGI (CCRF-CEM leukemia) was 44.6 µM and the TGI (SW-620 colon) was 71.7 µM. For the same compound, the TGI (P388/ADR leukemia) was greater than 100000 nM, the TGI (LXFL 529 NSCLC) was 16.3 µM and the TGI (A498 renal) was 43.3 µM. It also gave a TGI (BT-549 breast) greater than 100000 nM, a TGI (M19-MEL melanoma) of 61.3 µM and a TGI (NCI-H226 lung) of 47.4 µM. The TGI (SF-295 CNS) was 72800 nM, the TGI (XF 498 CNS) was greater than 62100 nM and the TGI (OVCAR-5 ovarian) was 64.1 µM. It also gave a TGI (UACC-257 melanoma) of 65.9 µM, a TGI (COLO 205 colon) of 71.3 µM and a TGI (HCT-116 colon) of 73 µM. For the same compound, the TGI (MALME-3M melanoma) was 70.8 µM, the TGI (KM20L2 colon) was 58.7 µM and the TGI (DLD-1 colon) was greater than 72300 nM. It also gave a TGI (KM12 colon) of 73.1 µM, a TGI (SR leukemia) of 36.3 µM and a TGI (MDA-MB-435) greater than 100000 nM. It also gave a TGI (M14 melanoma) of 55.5 µM, a TGI (TK-10 renal) of 88.2 µM and a TGI (SNB-19 CNS) of 81 µM. It also gave a TGI (IGROV1 ovarian) of 70.6 µM, a TGI (SNB-75 CNS) of 61.7 µM and a TGI (SK-MEL-28 melanoma) of 75.1 µM. It also gave a TGI (SK-MEL-5 melanoma) greater than 81.7 µM, a TGI (NCI-H23 lung) of 60.9 µM and a TGI (HOP-62 NSCLC) of 62 µM. The TGI (P388 leukemia) was greater than 100000 nM, the TGI (DMS 114 small cell lung) was 57.4 µM and the TGI (MOLT-4 leukemia) was 34.8 µM. It also gave a TGI (OVCAR-4 ovarian) greater than 78.8 µM, a TGI (OVCAR-3 ovarian) of 69.9 µM and a TGI (K-562 leukemia) of 77.1 µM. It also gave a TGI (SN12K1 renal) greater than 100000 nM, a TGI (HS 578T breast) greater than 100000 nM and a TGI (SK-MEL-2 melanoma) greater than 65.1 µM. The TGI (RPMI-8226 leukemia) was 73.3 µM, the TGI (UACC-62 melanoma) was 53.9 µM and the TGI (HCC-2998 colon) was 61.2 µM. For the same compound, the TGI (PC-3 prostate) was greater than 100000 nM.
